Experimental data published in patent US20070004791A1, “3,6-disubstituted azabicyclo {3.1.0} hexane derivatives useful as muscarnic receptor antagonists” (priority 2002, published 2007).
pKi: −log10 of the molar value. Where a name gives a salt, the structure may show the parent alone.

Legend:
M2 muscarinic receptor = target: T1, M2 muscarinic receptor (Rattus norvegicus, UniProt P10980); assay: biochemical; format: binding; settings: for pKi: Receptor Binding Assay M2 pKi
T1 construct: Submandibular glands and heart were isolated and placed in ice cold homogenising buffer; from tissue; host or cells: rat heart membrane homogenate
T1 sequence (P10980 1-466): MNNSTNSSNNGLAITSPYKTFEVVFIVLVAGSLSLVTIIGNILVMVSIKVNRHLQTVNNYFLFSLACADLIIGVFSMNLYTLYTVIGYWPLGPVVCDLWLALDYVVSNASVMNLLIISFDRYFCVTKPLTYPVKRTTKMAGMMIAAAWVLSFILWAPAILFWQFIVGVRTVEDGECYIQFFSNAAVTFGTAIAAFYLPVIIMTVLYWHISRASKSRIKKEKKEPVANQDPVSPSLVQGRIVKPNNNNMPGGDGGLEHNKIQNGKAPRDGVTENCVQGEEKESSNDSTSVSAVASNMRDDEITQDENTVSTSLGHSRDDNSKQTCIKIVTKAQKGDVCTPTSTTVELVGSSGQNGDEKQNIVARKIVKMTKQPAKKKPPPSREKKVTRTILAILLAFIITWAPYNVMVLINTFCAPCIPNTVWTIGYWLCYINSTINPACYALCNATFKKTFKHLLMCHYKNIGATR

M3 muscarinic receptor [1] = target: T2, M3 muscarinic receptor (Rattus norvegicus, UniProt P08483)
T2 sequence (P08483 whole entry): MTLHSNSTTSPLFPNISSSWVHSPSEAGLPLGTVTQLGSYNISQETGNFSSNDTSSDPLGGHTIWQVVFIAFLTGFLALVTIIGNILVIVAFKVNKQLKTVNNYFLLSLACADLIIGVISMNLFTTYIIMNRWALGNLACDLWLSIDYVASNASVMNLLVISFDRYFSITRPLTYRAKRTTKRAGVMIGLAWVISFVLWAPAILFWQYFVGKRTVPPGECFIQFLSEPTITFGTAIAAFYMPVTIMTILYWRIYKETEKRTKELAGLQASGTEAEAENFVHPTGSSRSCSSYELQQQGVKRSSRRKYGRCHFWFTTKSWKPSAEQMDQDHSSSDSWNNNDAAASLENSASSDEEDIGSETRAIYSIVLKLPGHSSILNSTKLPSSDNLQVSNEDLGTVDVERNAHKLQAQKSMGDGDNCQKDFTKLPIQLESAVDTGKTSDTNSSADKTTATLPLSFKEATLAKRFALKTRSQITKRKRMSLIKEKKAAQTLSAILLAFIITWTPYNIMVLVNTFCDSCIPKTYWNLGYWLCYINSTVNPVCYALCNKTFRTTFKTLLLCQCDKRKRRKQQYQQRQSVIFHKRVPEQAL

M3 muscarinic receptor [2] = target: T2, M3 muscarinic receptor; assay: biochemical; settings: Receptor Binding Assay M3 pKi

Compound	pKi (M2 muscarinic receptor)	Receptor Binding Assay Selectivity M2/M3 (M3 muscarinic receptor [1])	pKi (M3 muscarinic receptor [2])	Receptor Binding Assay M2 pKi (M2 muscarinic receptor)	Receptor Binding Assay M3 pKi (M3 muscarinic receptor [1])
O=C(NCC1C2CN(Cc3ccccc3)CC12)C(O)(c1ccccc1)C1CCCCC1 (single isomer, unassigned) [Compound No. 28]	7.85	3.5	8.40	–	–
O=C(NC[C@@H]1[C@H]2CN(Cc3ccccc3)C[C@@H]12)C(O)(c1ccccc1)c1ccccc1 [Compound No. 1, (1α,5α,6α)-N-[3-benzyl-3-azabicyclo[3.1.0]hexyl-6-(aminomethyl)-yl]-2-hydroxy-2,2-diphenyl acetamide]	6.59	10	7.60	–	–
O=C(NCC1C2CN(Cc3ccccc3)CC12)C(O)(c1ccccc1)C1CCCCC1 (stereo not drawn) [Compound No. 2, (1α,5α,6α)-N-[3-benzyl-3-azabicyclo[3.1.0]hexyl-6-(aminomethyl)-yl]-2-hydroxy-2-cyclohexyl-2-phenyl acetamide]	6.85	25	8.25	–	–
O=C(NC[C@@H]1[C@H]2CN(CCc3ccc4c(c3)CCO4)C[C@@H]12)C(O)(c1ccccc1)C1CCCCC1 (stereo partly drawn) [Compound No. 9, (1α,5α,6α)-N-[3-(2-(2,3-dihydrobenzofuran-5-yl)ethyl)-3-azabicyclo[3.1.0]hexyl-6-(aminomethyl)-yl]-2-hydroxy-2-cyclohexyl-2-phenyl acetamide]	6.59	6.6	7.41	–	–
O=C(NCC1C2CN(CCc3ccc4c(c3)CCO4)CC12)C(O)(c1ccccc1)C1CCCC1 (stereo not drawn) [Compound No. 10, (1α,5α,6α)-N-[3-(2-(2,3-dihydrobenzofuran-5-yl)ethyl)-3-azabicyclo[3.1.0]hexyl-6-(aminomethyl)-yl]-2-hydroxy-2-cyclopentyl-2-phenyl acetamide]	6.47	10.47	7.49	–	–
CC(C)=CCCN1C[C@@H]2[C@@H](CNC(=O)C(O)(c3ccccc3)C3CCCCC3)[C@@H]2C1 (stereo partly drawn) [Compound No. 15, (1α,5α,6α)-N-[3-(4-methyl-3-pentenyl)-3-azabicyclo[3.1.0]hexyl-6-(aminomethyl)-yl]-2-hydroxy-2-cyclohexyl-2-phenyl acetamide]	6.59	19	7.87	–	–
CC(C)=CCCN1CC2C(CNC(=O)C(O)(c3ccccc3)C3CCCC3)C2C1 (stereo not drawn) [Compound No. 16, (1α,5α,6α)-N-[3-(4-methyl-3-pentenyl)-3-azabicyclo[3.1.0]hexyl-6-(aminomethyl)-yl]-2-hydroxy-2-cyclopentyl-2-phenyl acetamide]	6.75	7.6	7.63	–	–
CC(c1ccccc1)N1CC2C(CNC(=O)C(O)(c3ccccc3)C3CCCCC3)C2C1 (stereo not drawn) [Compound No. 21, (1α,5α,6α)-N-[3-(1-phenylethyl)-3-azabicyclo[3.1.0]hexyl-6-(aminomethyl)-yl]-2-hydroxy-2-cyclohexyl-2-phenyl acetamide]	6.59	17	7.82	–	–
CC(c1ccccc1)N1CC2C(CNC(=O)C(O)(c3ccccc3)C3CCCC3)C2C1 (stereo not drawn) [Compound No. 22, (1α,5α,6α)-N-[3-(1-phenylethyl)-3-azabicyclo[3.1.0]hexyl-6-(aminomethyl)-yl]-2-hydroxy-2-cyclopentyl-2-phenyl acetamide]	7.06	14.8	8.23	–	–
O=C(NC[C@@H]1[C@H]2CN(Cc3cccnc3)C[C@@H]12)C(O)(c1ccccc1)C1CCCCC1 (stereo partly drawn) [Compound No. 45, (1α,5α,6α)-N-[3-(3-pyridylmethyl)-3-azabicyclo[3.1.0]hexyl-6-(aminomethyl)-yl]-2-hydroxy-2-cyclohexyl-2-phenyl acetamide]	< 6.00	–	6.63	–	–
O=C(NCC1C2CN(Cc3ccncc3)CC12)C(O)(c1ccccc1)C1CCCCC1 (stereo not drawn) [Compound No. 46, (1α,5α,6α)-N-[3-(4pyridylmethyl)-3-azabicyclo[3.1.0]hexyl-6-(aminomethyl)-yl]-2-hydroxy-2-cyclohexyl-2-phenylacetamide]	< 6.00	–	7.17	–	–
O=C(NC[C@@H]1[C@H]2CN(Cc3ccncc3)C[C@@H]12)C(O)(c1ccccc1)C1CCCC1 (stereo partly drawn) [Compound No. 48, (1α,5α,6α)-N-[3-(4-pyridylmethyl)-3-azabicyclo[3.1.0]hexyl-6-(aminomethyl)-yl]-2-hydroxy-2-cyclopentyl-2-phenylacetamide]	< 6.00	–	7.14	–	–
O=C(NC[C@@H]1[C@H]2CN(Cc3cccnc3)C[C@@H]12)C(O)(c1ccccc1)c1ccccc1 [Compound No. 49, (1α,5α,6α)-N-[3-(3-pyridylmethyl)-3-azabicyclo[3.1.0]hexyl-6-(aminomethyl)-yl]-2-hydroxy-2,2-diphenylacetamide]	< 6.00	–	7.16	–	–
O=C(NC[C@@H]1[C@H]2CN(Cc3ccncc3)C[C@@H]12)C(O)(c1ccccc1)c1ccccc1 [Compound No. 50, (1α,5α,6α)-N-[3-(4-pyridylmethyl)-3-azabicyclo[3.1.0]hexyl-6-(aminomethyl)-yl]-2-hydroxy-2,2-diphenyl acetamide]	< 6.00	–	6.94	–	–
O=C(NCC1C2CN(Cc3ccccc3)CC12)C(O)(c1ccccc1)C1CCCC1 (stereo not drawn) [Compound No. 60, (1α,5α,6α)-N-[3-benzyl-3-azabicyclo[3.1.0]-hexyl-6-(aminomethyl)-yl]-2-hydroxy-2-cyclopentyl-2-phenyl acetamide hydrochloride salt]	7.31	–	8.28	–	–
O=C(NCC1C2CN(Cc3ccccc3)CC12)C(O)(c1ccccc1)C1CCCC1 (stereo not drawn) [Compound No. 61, (1α,5α,6α)-N-[3-benzyl-3-azabicyclo[3.1.0]-hexyl-6-(aminomethyl)-yl]-2-hydroxy-2-cyclopentyl-2-phenyl acetamide. L(−) malic acid salt]	7.36	–	8.29	–	–
O=C(NC[C@@H]1[C@H]2CN(Cc3ccccc3)C[C@@H]12)C(O)(c1ccccc1)C1CCCC1 (stereo partly drawn) [Compound No. 62, (1α,5α,6α)-N-[3-benzyl-3-azabicyclo[3.1.0]-hexyl-6-(aminomethyl)-yl]-2-hydroxy-2-cyclopentyl-2-phenyl acetamide. Maleate salt]	7.28	–	8.17	–	–
(1α,5α,6α)-N-[3-(2-(3,4-methylenedioxyphenyl)ethyl)-3-azabicyclo[3.1.0]hexyl-6-(aminomethyl)-yl]-2-hydroxy-2-cyclohexyl-2-phenyl acetamide [Compound No. 14]	–	10.5	–	5.7	6.72
(1α,5α,6α)-N-[3-(2-(3,4-methylenedioxyphenyl)ethyl)-3-azabicyclo[3.1.0]hexyl-6-(aminomethyl)-yl]-2-hydroxy-2-cyclopentyl-2-phenyl acetamide [Compound No. 13]	–	6.3	–	6.48	7.28
(1α,5α,6α)-N-[3-(2-pyridylmethyl)-3-azabicyclo[3.1.0]hexyl-6-(aminomethyl)-yl]-2-hydroxy-2-cyclopentyl-2-phenylacetamide [Compound No. 47]	–	–	–	6.15	7.42
